Among the test systems are KM12 colon; HCT-15 colon; SW-620 colon; K-562 leukemia; HCT-116 colon; RXF 393 renal; NCI-H522 lung; BT-549 breast.
Assay in all cases: NCI anticancer screen, dose series, 48 h

Molecules are shown by their SMILES. Values joined by “and” are separate entries in the source; they are usually repeats but may differ in a detail not shown here. Identical values can stand only once.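 Where inhibition never reached the appropriate level, the endpoint shown equals the highest concentration tested. Otherwise, values were interpolated linearly from a five-concentration, 48-hour dose response in 96-well plates. GI50 = concentration required for 50% inhibition of growth. TGI denotes the concentration required for complete inhibition of growth.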

Turning to `COc1ccc(C2CC(c3cccc(Nc4ccnc5cc(Cl)ccc45)c3)=NN2C=O)cc1` (centres undefined), the GI50 was 0.4 µM with KM12 colon; 0.541 µM with HCT-15 colon; 0.333 µM in the test on SW-620 colon; 0.33 µM with K-562 leukemia; 0.398 µM in the test on HCT-116 colon; 0.883 µM in the test on RXF 393 renal. The GI50 in the test with NCI-H522 lung was 0.265 µM; in the test with BT-549 breast, 0.486 µM. The TGI with KM12 colon is more than 36.4 µM; with HCT-15 colon, more than 100 µM; with SW-620 colon, more than 100 µM; with K-562 leukemia it was more than 100 µM; in the test with HCT-116 colon, 2.56 µM; with RXF 393 renal, 7.39 µM. Besides, the TGI in the test with NCI-H522 lung turned out to be 3.06 µM; in the test on BT-549 breast, 9.86 µM.
As for `O=C(Cc1ccc(/C=C/C(=O)c2ncc[nH]2)cc1)Nc1ccc(F)cc1`, the GI50 was 2.1 µM in the test with KM12 colon; 1.15 µM with HCT-15 colon; 1.43 µM in the test with SW-620 colon; 1.3 µM in the test on K-562 leukemia; 1.89 µM with HCT-116 colon; 3.44 µM in the test with RXF 393 renal. The GI50 with NCI-H522 lung was 3.38 µM; in the test on BT-549 breast, 2.73 µM. Further, the TGI in the test with KM12 colon was 7.91 µM; in the test with HCT-15 colon it was 7.37 µM; in the test on SW-620 colon it was 6.78 µM; with K-562 leukemia it was more than 33.3 µM; in the test with HCT-116 colon, 6.92 µM; in the test with RXF 393 renal, 8.92 µM. In addition, the TGI in the test on NCI-H522 lung amounted to 9.42 µM; in the test on BT-549 breast, 11.3 µM.
As to `Nc1nccc(-c2c(-c3ccc(F)cc3)ncn2C2CCNCC2)n1`, the GI50 is 4.26 µM and 4.01 µM with KM12 colon; > 25 µM and 6.43 µM with HCT-15 colon; 4.25 µM and 1.38 µM in the test with SW-620 colon; 5.92 µM and 2.92 µM with K-562 leukemia; 3.52 µM and 1.47 µM in the test on HCT-116 colon; 2.35 µM and 3.6 µM in the test with RXF 393 renal. The GI50 in the test on NCI-H522 lung was 6.98 µM and 2.04 µM; in the test with BT-549 breast it was 17.2 µM and 12 µM. Moreover, the TGI in the test with KM12 colon was more than 25 µM; in the test on HCT-15 colon, more than 25 µM; in the test with SW-620 colon it was more than 25 µM; with K-562 leukemia, more than 25 µM; in the test with HCT-116 colon it was more than 25 µM; with RXF 393 renal it was > 25 µM and 10.5 µM. Further, the TGI in the test on NCI-H522 lung was > 25 µM and 7.22 µM; with BT-549 breast, more than 25 µM.
As to `Cc1cccc(N(C)C(=O)[C@@H]2[C@H](O)CCN2c2nc(C)cc(C(F)(F)F)c2C#N)c1`, the GI50 in the test on KM12 colon was 28.2 µM; in the test on HCT-15 colon, 27.9 µM; in the test on SW-620 colon, 37.8 µM; with K-562 leukemia, 0.747 µM; in the test on HCT-116 colon, 15.4 µM; with RXF 393 renal it was 14.6 µM. The GI50 is 10.7 µM with NCI-H522 lung and 15.6 µM in the test on BT-549 breast. The TGI in the test on KM12 colon was more than 100 µM; in the test with HCT-15 colon it was more than 100 µM; in the test on SW-620 colon, more than 100 µM; in the test with K-562 leukemia, more than 100 µM; in the test on HCT-116 colon, 29 µM; with RXF 393 renal, 40.1 µM. In addition, the TGI was 32 µM in the test with NCI-H522 lung and 45.2 µM with BT-549 breast.
With `CCOC(=O)/C(=C/N1CCN(C(=O)c2ccco2)C1=S)C(=O)c1ccccc1`, the GI50 was 10.1 µM in the test on KM12 colon; 6.33 µM with HCT-15 colon; 7.93 µM with SW-620 colon; 15.7 µM in the test on K-562 leukemia; 8.93 µM with HCT-116 colon; 8.96 µM in the test on BT-549 breast. For the same molecule, the TGI with KM12 colon is more than 50 µM; in the test on HCT-15 colon, 18.5 µM; in the test on SW-620 colon, 24 µM; in the test on K-562 leukemia it was more than 50 µM; in the test with HCT-116 colon, 23.7 µM; with BT-549 breast, 25 µM.
For the molecule `C=C1CC[C@@H]2[C@](C)(COC(C)=O)[C@H](OC(C)=O)CC[C@@]2(C)[C@@H]1CC(Nc1ccc(S(=O)(=O)NC(C)=O)cc1)C1=CCOC1=O` (some centres undefined), the GI50 in the test on KM12 colon is 5.11 µM; with HCT-15 colon it was 1.53 µM; in the test on SW-620 colon, 1.61 µM; in the test with K-562 leukemia it was 2.58 µM; with HCT-116 colon it was 1.67 µM; with RXF 393 renal, 1.96 µM. Further, the GI50 in the test on NCI-H522 lung was 1.44 µM; in the test with BT-549 breast, 2.32 µM. The TGI in the test with KM12 colon came out at 15.9 µM; in the test on HCT-15 colon, 4.36 µM; with SW-620 colon, 3.58 µM; with K-562 leukemia, 17.6 µM; in the test with HCT-116 colon it was 3.66 µM; in the test with RXF 393 renal, 4.69 µM. In addition, the TGI came to 4.42 µM in the test on NCI-H522 lung and 7.93 µM in the test on BT-549 breast.
On to `Fc1cc2[nH]ncc2c2c3c(c(-c4cn[nH]c4C(F)(F)F)nc12)CCCC3`, for which the GI50 is 2.13 µM with KM12 colon; 2.79 µM in the test on HCT-15 colon; 1.36 µM in the test on SW-620 colon; 2.07 µM in the test with K-562 leukemia; 0.923 µM with HCT-116 colon; 1.08 µM with RXF 393 renal. The GI50 in the test with NCI-H522 lung was 1.62 µM; in the test with BT-549 breast, 1.38 µM. Moreover, the TGI in the test with KM12 colon is 15.3 µM; in the test with HCT-15 colon, 15.2 µM; in the test with SW-620 colon it was more than 100 µM; in the test on K-562 leukemia, more than 100 µM; in the test on HCT-116 colon, more than 100 µM; with RXF 393 renal, 2.39 µM. The TGI in the test on NCI-H522 lung was 9.4 µM; in the test on BT-549 breast, 2.96 µM.
`CCSCC1CC(O)(c2ccccc2)CC(c2ccc(F)cc2)O1` (centres undefined): the GI50 with KM12 colon is 1.88 µM; in the test on HCT-15 colon, 2.11 µM; in the test on SW-620 colon, 1.98 µM; with K-562 leukemia, 1.83 µM; with HCT-116 colon it was 1.66 µM; in the test with RXF 393 renal it was 1.68 µM. For the same molecule, the GI50 in the test on NCI-H522 lung is 1.94 µM; in the test on BT-549 breast it was 1.6 µM. For the same molecule, the TGI was determined as 3.67 µM in the test on KM12 colon; 5.49 µM in the test with HCT-15 colon; 4.42 µM with SW-620 colon; 3.93 µM in the test on K-562 leukemia; 3.02 µM with HCT-116 colon; 3.47 µM in the test on RXF 393 renal. Further, the TGI came to 5.88 µM in the test with NCI-H522 lung and 3.45 µM with BT-549 breast.

Source of the values: PubChem BioAssay (NCI).
